Test results from publication PMC9645344, “Serotonin-releasing agents with reduced off-target effects” (Molecular Psychiatry, 2022).
Counter-ions that a name gives are not always drawn.

Assays:
VMAT2 = tested on: VMAT2; parameters: method as in PMID 25771452; conditions: racemic; cited from earlier work
[1] = tested on: extracellular 5-HT in the NAc; experiment: Fiber photometry with GRAB5-HT sensor in the NAc of freely moving mice; format: in vivo
Experimental: (§1) All in vivo experiments were performed in adult mice (>6 weeks old). For the photometry and microdialysis experiments, which were carried out in Florida, male C57BL/6J mice from The Jackson Laboratory (Bar Harbor, ME, USA) were group-housed in polycarbonate cages (GM500, Tecniplast, Buguggiate, Italy) with lights on from 7 a.m. to 7 p.m. Food and water were provided ad libitum. Photometry and microdialysis experiments were performed in accordance with a protocol approved by the Institutional Animal Care and Use Committee at Florida Atlantic University. For the behavioral experiments, which were carried out in Vienna, C57BL/6N mice from Charles River (Sulzfeld, Germany) were group-housed in polycarbonate cages with lights on from 7 a.m. to 7 p.m. Food and water were provided ad libitum. Behavioral experiments were performed in accordance with a protocol approved by the Austrian national ethical committee on animal care and use (Bundesministerium für Wissenschaft und Forschung: BMWFW-66.009/0016-WF/V/3b/2015). All animal procedures were conducted in agreement with the ARRIVE guidelines and the U.K. Animal (Scientific Procedures) Act, 1986, and associated guidelines, EU Directive 2010/63/EU for animal experiments. Mice were given at least 1 week to acclimate before being used in any experiments.
Mice were anesthetized with isoflurane (5% induction, 2% maintenance) and placed into a stereotaxic frame (Kopf Instruments, Tujunga, CA, USA) oriented in the flat skull position. Ophthalmic ointment was applied to prevent drying of the eyes. Ketoprofen (10 mg kg^−1) was administered subcutaneously (s.c.), whereas bupivacaine and lidocaine were administered locally (s.c.; 100 µl of sterile saline containing 0.05% bupivacaine and 0.2% lidocaine) to the surgical site atop the head. A midline incision was made through the skin on the dorsal surface of the head to expose the skull. Fascia was removed, coordinates for the NAc were determined relative to bregma: anterior/posterior = 1.54 mm; medial/lateral = 0.7 mm; dorsal/ventral = −4.1 mm. A 1 mm burr hole was drilled through the skull. […] For the mice used for fiber photometry, 4*10^12 genome copies of AAV9-hSyn-5-HT2h or 10^10 genome copies of AAV-hSyn-DA2m were delivered into the NAc at an infusion rate of 100 nl min^−1 (total volume of 1 µl) using a 34-gauge needle attached to a 10 µl Nanofil microsyringe (Hamilton, Reno, NV, USA), as previously described. Following injection of the virus, an optical fiber was lowered through the burr hole and secured with glass ionomer cement. Three 1.6 mm screws (00-96X1/16 39052, Plastics One Inc., Roanoke, VA, USA) were affixed to the skull to support a cement stage that was created to secure the implanted guide cannulae or optical fiber. Mice were singly housed following surgery and allowed 6 days of recovery for the microdialysis experiments or 21 days for the photometry experiments. Food and water were available ad libitum.
To monitor light emitted from the G-protein coupled receptor-activation-based 5-HT (GRAB5-HT) and DA (GRABDA) sensors, fiber photometry was performed as described. Briefly, a light emitting diode (465 nm) (CLED_465, Doric Lenses, Quebec, QC, Canada), reflected through a dichroic mirror, was coupled to an optical fiber (200 µm core/225 cladding diameter; Thorlabs, Newton, NJ, USA) that was glued to a metal ferrule (Doric Lenses, Quebec, QC, Canada) and implanted into the NAc as described above. Emitted, band-pass filtered light (500–550 nm, FMC6, Doric Lenses, Quebec,QC, Canada) was detected with a photodetector (Newport Femtowatt silicone PIN; New Focus, San Jose, CA, USA). Data were recorded using a RZ5P lock-in amplifier (Tucker-Davis Technologies, Alachua, FL, USA) controlled with Synapse software. Sinusoidal excitation was delivered at 210 Hz by an LED driver Doric Lenses, LEDD_4) at low power mode. A demodulated signal was low-pass filtered at 6 Hz and digitized at 1017 Hz. […]

rat brain synaptosomes = tested on: rat brain synaptosomes; parameters: method as in PMID 26738428; conditions: cited from earlier work
human SERT [2] = target: T1, human SERT (Homo sapiens, UniProt P31645); experiment: SERT uptake inhibition assay in HEK293 cells ([3H]5-HT); format: cell-based
T1 construct: expressed in transfected cells
T1 sequence (P31645 whole entry): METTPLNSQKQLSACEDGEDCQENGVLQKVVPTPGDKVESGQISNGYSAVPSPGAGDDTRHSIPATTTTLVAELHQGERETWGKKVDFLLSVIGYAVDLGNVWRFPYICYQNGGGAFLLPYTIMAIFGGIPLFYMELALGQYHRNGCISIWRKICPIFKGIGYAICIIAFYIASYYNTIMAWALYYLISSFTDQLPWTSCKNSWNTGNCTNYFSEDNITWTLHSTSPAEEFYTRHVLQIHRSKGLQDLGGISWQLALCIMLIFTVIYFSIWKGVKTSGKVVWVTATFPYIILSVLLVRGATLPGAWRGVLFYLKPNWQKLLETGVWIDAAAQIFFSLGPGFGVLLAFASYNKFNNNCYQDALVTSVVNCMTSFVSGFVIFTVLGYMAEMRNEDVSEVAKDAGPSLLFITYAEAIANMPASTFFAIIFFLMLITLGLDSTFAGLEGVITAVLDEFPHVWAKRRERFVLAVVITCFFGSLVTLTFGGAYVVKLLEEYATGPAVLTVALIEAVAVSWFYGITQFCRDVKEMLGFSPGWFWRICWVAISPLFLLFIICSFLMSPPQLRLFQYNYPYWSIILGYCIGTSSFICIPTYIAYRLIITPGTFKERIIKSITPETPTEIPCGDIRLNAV
Experimental: (§2) Human embryonic kidney 293 (HEK293) cells stably expressing the human isoforms of either DAT or SERT were maintained in Dulbecco’s Modified Eagle Medium (DMEM), supplemented with 10% fetal calf serum at a subconfluent state in humidified atmosphere (5% CO2, 37 °C).
(§3) Uptake inhibition assays were performed as described earlier. Briefly, HEK293 cells stably expressing human SERT or DAT were seeded onto poly- D-lysine (PDL) coated 96-well plates (40,000 cells well^−1) the day before an experiment. Prior to the uptake inhibition assay, DMEM was replaced with Krebs-HEPES buffer (KHB, 25 mM HEPES, 120 mM NaCl, 5 mM KCl, 1.2 mM CaCl2, 1.2 mM MgSO4, and 5 mM D-glucose, pH 7.3) and the cells were preincubated with test drugs for 5 min at room temperature. Uptake assays were initiated by adding 20 nM [^3H]MPP^+ to DAT cells or 100 nM [^3H]5-HT to SERT cells. After 180 s (DAT) or 60 s (SERT), the tritiated substrate was removed by aspiration. Cells were washed once with ice-cold KHB, then lysed in 1% sodium dodecyl sulfate (SDS) and subjected to liquid scintillation counting to quantify tritium accumulated in each sample. Non-specific uptake was determined in the presence of mazindol (1 µM) for DAT or paroxetine (1 µM) for SERT and subtracted throughout.

human DAT = target: T2, human DAT (Homo sapiens, UniProt Q01959); experiment: DAT uptake inhibition assay in HEK293 cells ([3H]MPP+); format: cell-based; conditions: for DAT/SERT ratio: (1/DAT IC50)/(1/SERT IC50), higher values indicate higher DAT-selectivity
T2 construct: expressed in transfected cells
T2 sequence (Q01959 whole entry): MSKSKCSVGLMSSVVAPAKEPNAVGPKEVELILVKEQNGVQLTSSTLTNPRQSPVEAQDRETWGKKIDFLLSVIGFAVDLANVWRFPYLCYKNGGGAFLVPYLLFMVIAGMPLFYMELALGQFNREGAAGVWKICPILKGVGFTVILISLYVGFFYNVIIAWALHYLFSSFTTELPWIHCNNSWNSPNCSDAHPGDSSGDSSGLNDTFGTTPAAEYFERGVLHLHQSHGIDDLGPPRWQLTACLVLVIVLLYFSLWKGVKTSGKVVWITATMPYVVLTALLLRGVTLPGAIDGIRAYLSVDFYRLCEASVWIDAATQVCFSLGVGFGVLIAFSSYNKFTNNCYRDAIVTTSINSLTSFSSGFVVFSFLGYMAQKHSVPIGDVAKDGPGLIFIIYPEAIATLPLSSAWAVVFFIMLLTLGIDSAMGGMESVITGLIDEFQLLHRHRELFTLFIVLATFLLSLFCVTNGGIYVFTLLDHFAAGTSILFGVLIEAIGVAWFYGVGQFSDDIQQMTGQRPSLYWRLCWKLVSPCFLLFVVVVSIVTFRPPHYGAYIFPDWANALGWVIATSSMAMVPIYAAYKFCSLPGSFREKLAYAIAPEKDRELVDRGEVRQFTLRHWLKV
Experimental: as §2, §3

C57BL/6N mice [3] = experiment: Forced-swim test (FST); format: in vivo; conditions: for immobility time in the FST versus vehicle: mice
Experimental: as §1
(§4) For behavioral assays, animals were assigned to treatment groups and injected with test drugs by an unblinded observer.
The FST was performed as previously described. In brief, mice were placed for 6 min in a beaker (diameter: 19 cm, height: 23 cm), halfway filled with water (22–23 °C), and the immobility time was quantified using the software Videotrack (Viewpoint, Champagne au Mont d’Or, France). Immobility was defined as the absence of any movement, except for those required to keep the head above the water. The time spent immobile during the final 4 min of the test was used as a measure of behavioral despair. Animal sample size was confirmed using a post hoc analysis of the achieved power using G*Power3.1 [29]. Using a significance level (α) of 0.05 and an effect size f = 2.5 and a sample size of 6 animals/group we achieved the commonly accepted statistical power (1−β) of 0.8.

human SERT [4] = target: T1, human SERT; experiment: [3H]5-HT release assay in HEK293 cells (superfusion); format: cell-based; conditions: 10 µM, SERT-expressing HEK293 cells
Experimental: HEK293 cells stably expressing SERT were seeded onto PDL-coated glass coverslips (5 mm diameter) that were placed into 96-well plates at a density of 40,000 cells per well the day before the experiment. Cells were preloaded with [^3H]5-HT (0.4 µM, 20 min at 37 °C). Subsequently, the cells were transferred into small chambers with a total volume of 200 µl and superfused with KHB at a flow rate of 0.7 ml per min for 40 min to establish a stable baseline before the collection of 2-min fractions was initiated. For each experiment, three basal fractions were collected before the cells were exposed to various concentrations (given in the figure legends) of the test drugs for five fractions. Subsequently, the cells were superfused with 1% SDS for three final fractions that served to determine the total amount of radioactivity present within the cells at the end of each experimental run. The amount of tritium within each fraction was determined by liquid scintillation counting, and release was expressed as percentage of radioactivity released in relation to the total radioactivity present at the beginning of that fraction. Observations from superfusion experiments were excluded in case of premature exposure to SDS.

C57BL/6N mice [5] = experiment: Open-field test; format: in vivo; conditions: for horizontal locomotor activity (total distance traveled) in the open field test: 1 h
Experimental: as §1, §4
Mice were placed into an open field arena (27.3 × 27.3 × 27.3 cm) surrounded by infrared beams to track movements. The total distance traveled over 1 h was recorded using Activity Monitor (Med Associates Inc., St. Albans, VT, USA) and interpreted as a measure of the psychostimulant effects. Animal sample size was confirmed using a post hoc analysis of the achieved power using G*Power3.1 [29]. Using a significance level (α) of 0.05 and an effect size f = 1.92 and a sample size of 7.5 animals (5–10)/group we achieved the commonly accepted statistical power (1−β) of 0.8.

VMATs = experiment: VMAT uptake inhibition assay in PC12 cells; format: cell-based; conditions: all at 30 µM, relative to inhibition by 30 µM reserpine
Experimental: VMAT uptake inhibition assays were conducted as previously described, with some modifications. In brief, […] PC12 cells per well were seeded in 24-well plates the day before experimentation. The cells were pretreated with 100 nM nisoxetine and mazindol to inhibit non-specific binding. PC12 cells were then preincubated with 200 µM digitonin to permeabilize membranes and were kept at room temperature on a plate shaker at low velocity for 30 min. Cells were treated with test drugs and shaken for another 10 min. Tritiated substrate (0.05 µM [^3H]5-HT) was added, and the cells incubated on the plate shaker for 30 min. To terminate uptake, cells were transferred into 1.5 ml Eppendorf tubes, centrifuged at 5000 rpm for 5 min. The supernatant was aspirated, cells were washed with cold KHB, recentrifuged and lysed with 200 µl SDS. The solutions were transferred into vials containing 2 ml scintillation cocktail and radioactivity was determined via beta-scintillation counting (Perkin Elmer, Waltham, MA, USA). For analysis, inhibitory potency of test drugs was normalized to uptake inhibition caused by the potent VMAT inhibitor reserpine.

[6] = indicated doses (1, 5 and 10 mg kg-1) intraperitoneal

CNC(C)C(=O)c1ccc(C)cc1 (stereo not shown) [4-MMC, 4-methyl-N-methylcathinone]
potency to inhibit VMAT2-mediated uptake, lower than that of MDMA (VMAT2): 10 fold

CCN[C@@H](C)Cc1cccc(C(F)(F)F)c1 [D-FEN, d-fenfluramine, reference compound]
extracellular 5-HT in the NAc (GRAB5-HT fluorescence) ([1]; 10 mg kg-1 intraperitoneal): increased 5-HT when compared to saline | GRAB5-HT basal fluorescence in the NAc ([1]; 3 and 10 mg kg-1 intraperitoneal): increased the basal fluorescence in a dose-dependent manner | relative GRAB5-HT fluorescence at peak versus saline ([1]; t = 700-900 s post injection, drug alone, D-FEN 10, S-4-MC 5, S-4-TFMMC 10 mg kg-1 intraperitoneal): Significant effects

Cc1ccc(C(=O)[C@@H](C)N)cc1 [R-4-MC, 4-methylcathinone]
5-HT release efficacy in rat brain synaptosomes (rat brain synaptosomes): fully efficacious 5-HT releaser | extracellular 5-HT in the NAc (GRAB5-HT fluorescence) ([1]; 5 mg kg-1 intraperitoneal): no effect on 5-HT was observed | IC50 (human SERT [2]): 186 µM | IC50 (human DAT): 9.6 µM | DAT/SERT ratio (human DAT): 19.3 | immobility time in the FST versus vehicle (C57BL/6N mice [3]; 1 mg kg-1 intraperitoneal): had no effect | immobility time in the FST versus vehicle (C57BL/6N mice [3]; 5 mg kg-1 intraperitoneal): had no effect | immobility time in the FST versus vehicle (C57BL/6N mice [3]; 10 mg kg-1 intraperitoneal): had no effect | effect on release of preloaded [3H]5-HT (human SERT [4]): did not alter basal release of 5-HT

CN[C@H](C)C(=O)c1ccc(C)cc1 [R-4-MMC, 4-methyl-N-methylcathinone]
horizontal locomotor activity (total distance traveled) in the open field test (C57BL/6N mice [5]; 10 mg kg-1 intraperitoneal): significantly affected horizontal locomotor activity | IC50 (human SERT [2]): 77.1 µM | IC50 (human DAT): 12.5 µM | DAT/SERT ratio (human DAT): 6.2 | immobility time in the FST versus vehicle (C57BL/6N mice [3]; 10 mg kg-1 intraperitoneal): significantly reduced immobility time | effect on release of preloaded [3H]5-HT (human SERT [4]): did not alter basal release of 5-HT

CN[C@H](C)C(=O)c1ccc(C(F)(F)F)cc1 [R-4-TFMMC, 4-trifluoromethyl-N-methylcathinone]
extracellular 5-HT in the NAc (GRAB5-HT fluorescence) ([1]; 10 mg kg-1 intraperitoneal): no effect on 5-HT was observed | IC50 (human SERT [2]): 22.6 µM | IC50 (human DAT): 153 µM | DAT/SERT ratio (human DAT): 0.15 | immobility time in the FST versus vehicle (C57BL/6N mice [3]; 1 mg kg-1 intraperitoneal): had no effect | immobility time in the FST versus vehicle (C57BL/6N mice [3]; 5 mg kg-1 intraperitoneal): had no effect | immobility time in the FST versus vehicle (C57BL/6N mice [3]; 10 mg kg-1 intraperitoneal): had no effect | effect on release of preloaded [3H]5-HT (human SERT [4]): did not alter basal release of 5-HT

CN[C@H](C)C(=O)c1ccccc1 [R-MC, N-methylcathinone]
IC50 (human SERT [2]): 964 µM | IC50 (human DAT): 10.6 µM | DAT/SERT ratio (human DAT): 90.7 | effect on release of preloaded [3H]5-HT (human SERT [4]): did not alter basal release of 5-HT

CN[C@@H](C)C(=O)c1ccc(C)cc1 [S-4-MMC, 4-methyl-N-methylcathinone]
vertical counts in the open field test (C57BL/6N mice [5]; [6]): affected vertical counts | horizontal locomotor activity (total distance traveled) in the open field test (C57BL/6N mice [5]; [6]): did not differ from vehicle | IC50 (human SERT [2]): 10.9 µM | IC50 (human DAT): 10.3 µM | DAT/SERT ratio (human DAT): 1.06 | time spent immobile in the FST, male and female mice (C57BL/6N mice [3]; 5 mg kg-1 intraperitoneal, male and female mice): significantly reduced the time spent immobile regardless of sex | immobility time in the FST versus vehicle (C57BL/6N mice [3]; 5 mg kg-1 intraperitoneal): significantly reduced immobility time versus vehicle | immobility time in the FST versus vehicle (C57BL/6N mice [3]; 10 mg kg-1 intraperitoneal): significantly reduced immobility time versus vehicle | inhibition of VMAT-mediated transport compared to MDMA (VMATs): no difference | effect on release of preloaded [3H]5-HT (human SERT [4]): robustly increased

CN[C@@H](C)C(=O)c1ccccc1 [S-MC, N-methylcathinone]
IC50 (human SERT [2]): 393 µM | IC50 (human DAT): 9.1 µM | DAT/SERT ratio (human DAT): 43.2 | effect on release of preloaded [3H]5-HT (human SERT [4]): little effect

CNCCC(Oc1ccc(C(F)(F)F)cc1)c1ccccc1 (stereo not shown) [fluoxetine, Fluoxetine hydrochloride, reference compound]
extracellular 5-HT in the NAc (GRAB5-HT fluorescence) ([1]; 10 mg kg-1 intraperitoneal): without effect
